Holding throughout (assay type): cell-based
One test addresses T1, human NMUR1 receptor (Homo sapiens, UniProt Q9HB89).
T1 construct: expressed in transfected cells; host or cells: CHO-K1
T1 sequence (Q9HB89 1-426): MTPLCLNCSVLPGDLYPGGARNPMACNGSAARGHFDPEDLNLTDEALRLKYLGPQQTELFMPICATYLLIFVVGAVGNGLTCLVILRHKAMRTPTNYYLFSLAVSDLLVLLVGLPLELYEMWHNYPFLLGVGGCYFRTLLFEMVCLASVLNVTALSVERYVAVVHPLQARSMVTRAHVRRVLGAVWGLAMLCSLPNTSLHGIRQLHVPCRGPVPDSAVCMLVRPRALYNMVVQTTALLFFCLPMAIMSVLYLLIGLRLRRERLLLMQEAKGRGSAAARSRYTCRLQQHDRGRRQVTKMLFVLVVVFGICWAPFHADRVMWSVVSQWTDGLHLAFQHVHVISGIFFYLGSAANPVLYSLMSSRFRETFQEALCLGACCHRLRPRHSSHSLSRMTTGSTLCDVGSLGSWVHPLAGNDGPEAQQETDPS
Description: IP1 Gq HTRF assay, activation of human NMUR1 in buffer. The following applies: CHO-K1 cells expressing human NMUR1, stimulation buffer with 0.1% BSA; read-out: EC50 (hNMUR1) buffer. In a few lines: (§1)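 CHO-K1 cells stably expressing human NMUR1 or NMUR2, seeded 24 h before assay, stimulated with peptide agonists (8-point dose-response, 1% DMSO final) in HEPES/HBSS buffer with 50 mM LiCl and 0.1% BSA, pH 7.4, 1 h at 37 °C. IP1 accumulation read by HTRF competition (665/620 nm); EC50 from 4-parameter sigmoidal fit.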

Test [1] deals with T2, human NMUR2 receptor (Homo sapiens, UniProt Q9GZQ4). Description: IP1 Gq HTRF assay, activation of human NMUR2 in buffer. On the set-up: expressed in transfected cells; host or cells: CHO-K1. The following applies: CHO-K1 cells expressing human NMUR2, stimulation buffer with 0.1% BSA; read-out: EC50 (hNMUR2) buffer. In a few lines: as §1
T2 sequence (Q9GZQ4 whole entry): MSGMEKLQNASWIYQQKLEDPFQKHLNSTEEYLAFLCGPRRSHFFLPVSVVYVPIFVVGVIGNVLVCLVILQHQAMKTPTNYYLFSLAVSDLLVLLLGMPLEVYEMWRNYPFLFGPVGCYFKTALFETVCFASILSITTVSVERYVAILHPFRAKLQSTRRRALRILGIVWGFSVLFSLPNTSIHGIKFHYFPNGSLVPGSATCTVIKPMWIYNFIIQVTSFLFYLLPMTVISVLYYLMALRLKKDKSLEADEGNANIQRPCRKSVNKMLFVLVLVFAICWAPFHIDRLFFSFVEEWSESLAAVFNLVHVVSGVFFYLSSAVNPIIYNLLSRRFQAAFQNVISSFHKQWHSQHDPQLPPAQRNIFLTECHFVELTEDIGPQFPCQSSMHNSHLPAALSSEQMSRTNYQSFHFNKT
The target of test [2] is T2, human NMUR2 receptor. Description: IP1 Gq HTRF assay, activation of human NMUR2 in human plasma. Further details: expressed in transfected cells; host or cells: CHO-K1. Conditions: CHO-K1 cells expressing human NMUR2, 100% human plasma; read-out: EC50 (hNMUR2) human plasma. In a few lines:
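CHO-K1 cells stably expressing human NMUR2 exposed to peptide agonists (8-point dose-response) in 100% human plasma with 50 mM LiCl, 1% DMSO, for 1 h at 37° C. IP1 accumulation read by HTRF competition (665/620 nm ratio). EC50 from 4-parameter sigmoidal fit.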

Starred links: 1 amine or outer side, 2 acyl side, 3 side chain; linkers in the order of their positions; H or OH if unused. Non-standard residues stand in square brackets, D forms with d. Residues, ends and D or L forms follow the SMILES beside them. *: point of attachment. Pipz(1-CH2CO,4-CH2CH2NH) = O=C(CN1CCN(CCN[*:1])CC1)[*:2]; C18 diacid = O=C(O)CCCCCCCCCCCCCCCCC(=O)*; γGlu = O=C(O)[C@H](CCC(=O)[*:2])N[*:1]; 4Pal = N[C@@H](Cc1ccncc1)C(=O)O; NMeL = CN[C@@H](CC(C)C)C(=O)O; Nle = CCCC[C@H](N)C(=O)O; Sar = CNCC(=O)O Where only a bound is given, the exact number is not on record here.

Regarding `CCCC[C@H](NC(=O)[C@H](CC(C)C)N(C)C(=O)[C@H](Cc1ccccc1)NC(=O)[C@H](Cc1ccc(O)cc1)NC(=O)CN1CCN(CCNC(=O)CN(C)C(=O)CN(C)C(=O)CN(C)C(=O)CN(C)C(=O)CN(C)C(=O)CN(C)C(=O)CN(C)C(=O)CN(C)C(=O)CN(C)C(=O)CN(C)C(=O)CN(C)C(=O)CN(C)C(=O)CN(C)C(=O)CN(C)C(=O)CN(C)C(=O)CC[C@H](NC(=O)CC[C@H](NC(=O)CC[C@H](NC(=O)CCCCCCCCCCCCCCCCC(=O)O)C(=O)O)C(=O)O)C(=O)O)CC1)C(=O)N(C)[C@@H](CCCNC(=N)N)C(=O)N1CCC[C@H]1C(=O)N[C@@H](CCCNC(=N)N)C(=O)NCC(N)=O` [Compound 52, C18DA-gGlu3-Sar15-AEPipAc-Tyr-Phe-NMeLeu-Nle-NMeArg-Pro-Arg-Gly-NH2] (HELM PEPTIDE1{[O=C(O)CCCCCCCCCCCCCCCCC(=O)[*:2]].[gGlu].[gGlu].[gGlu].[Sar].[Sar].[Sar].[Sar].[Sar].[Sar].[Sar].[Sar].[Sar].[Sar].[Sar].[Sar].[Sar].[Sar].[Sar].[O=C(CN1CCN(CCN[*:1])CC1)[*:2]].Y.F.[meL].[Nle].[meR].P.R.G.[am]}$$$$V2.0), the EC50 on human NMUR1 receptor turned out to be 200 nM; on human NMUR2 receptor [1], 1.4 nM; on human NMUR2 receptor [2], 6.4 nM.
The like results for `CCCC[C@H](NC(=O)[C@H](CC(C)C)N(C)C(=O)[C@H](Cc1ccccc1)NC(=O)[C@H](Cc1ccc(O)cc1)NC(=O)CN1CCN(CCNC(=O)CN(C)C(=O)CN(C)C(=O)CN(C)C(=O)CN(C)C(=O)CN(C)C(=O)CN(C)C(=O)CN(C)C(=O)CN(C)C(=O)CN(C)C(=O)CN(C)C(=O)CN(C)C(=O)CN(C)C(=O)CN(C)C(=O)CN(C)C(=O)CN(C)C(=O)CC[C@H](NC(=O)CC[C@H](NC(=O)CC[C@H](NC(=O)CCCCCCCCCCCCCCCCC(=O)O)C(=O)O)C(=O)O)C(=O)O)CC1)C(=O)N[C@@H](Cc1ccncc1)C(=O)N1CCC[C@H]1C(=O)N[C@@H](CCCNC(=N)N)C(=O)NCC(N)=O` [Compound 45, C18DA-gGlu3-Sar15-AEPipAc-Tyr-Phe-NMeLeu-Nle-4Pal-Pro-Arg-Gly-NH2] ({C18 diacid-γGlu-γGlu-γGlu}-[Sar][Sar][Sar][Sar][Sar][Sar][Sar][Sar][Sar][Sar][Sar][Sar][Sar][Sar][Sar][Pipz(1-CH2CO,4-CH2CH2NH)]YF[NMeL][Nle][4Pal]PRG-NH2) were, in that order, more than 1000 nM, 30 nM and 129 nM.
The like results for `CCCC[C@H](NC(=O)[C@H](CC(C)C)N(C)C(=O)[C@H](Cc1ccccc1)NC(=O)[C@H](Cc1ccc(O)cc1)NC(=O)CN1CCN(CCNC(=O)CN(C)C(=O)CN(C)C(=O)CN(C)C(=O)CN(C)C(=O)CN(C)C(=O)CN(C)C(=O)CN(C)C(=O)CN(C)C(=O)CN(C)C(=O)CN(C)C(=O)CN(C)C(=O)CN(C)C(=O)CC[C@H](NC(=O)CC[C@H](NC(=O)CC[C@H](NC(=O)CC[C@H](NC(=O)CCCCCCCCCCCCCCCCCCC(=O)O)C(=O)O)C(=O)O)C(=O)O)C(=O)O)CC1)C(=O)N[C@@H](CCN)C(=O)N(C)[C@@H](C)C(=O)N[C@@H](CCCNC(=N)N)C(=O)NCC(N)=O` [Compound 31, C20DA-gGlu4-Sar12-AEPipAc-Tyr-Phe-NMeLeu-Nle-Dbu-NMeAla-Arg-Gly-NH2] were, in that order, more than 1000 nM, 3.7 nM and 14.6 nM.
`CCCC[C@H](NC(=O)[C@H](CC(C)C)N(C)C(=O)[C@H](Cc1ccccc1)NC(=O)[C@H](Cc1ccc(O)cc1)NC(=O)CN1CCN(CCNC(=O)CN(C)C(=O)CN(C)C(=O)CN(C)C(=O)CN(C)C(=O)CN(C)C(=O)CN(C)C(=O)CN(C)C(=O)CN(C)C(=O)CN(C)C(=O)CN(C)C(=O)CN(C)C(=O)CN(C)C(=O)CN(C)C(=O)CN(C)C(=O)CN(C)C(=O)CC[C@H](NC(=O)CC[C@H](NC(=O)CC[C@H](NC(=O)CCCCCCCCCCCCCCCCC(=O)O)C(=O)O)C(=O)O)C(=O)O)CC1)C(=O)N(C)[C@@H](CCCNC(=N)N)C(=O)N(C)[C@@H](C)C(=O)N[C@@H](CCCNC(=N)N)C(=O)NCC(N)=O` [Compound 53, C18DA-gGlu3-Sar15-AEPipAc-Tyr-Phe-NMeLeu-Nle-NMeArg-NMeAla-Arg-Gly-NH2] (HELM PEPTIDE1{[O=C(O)CCCCCCCCCCCCCCCCC(=O)[*:2]].[gGlu].[gGlu].[gGlu].[Sar].[Sar].[Sar].[Sar].[Sar].[Sar].[Sar].[Sar].[Sar].[Sar].[Sar].[Sar].[Sar].[Sar].[Sar].[O=C(CN1CCN(CCN[*:1])CC1)[*:2]].Y.F.[meL].[Nle].[meR].[meA].R.G.[am]}$$$$V2.0): the EC50 on human NMUR1 receptor was found to be 1300 nM; on human NMUR2 receptor [1] it was 4 nM; at human NMUR2 receptor [2] it was 24.9 nM.
In the case of `CCCC[C@H](NC(=O)[C@H](CC(C)C)N(C)C(=O)[C@H](Cc1ccccc1)NC(=O)[C@H](Cc1ccc(O)cc1)NC(=O)CN1CCN(CCNC(=O)CN(C)C(=O)CN(C)C(=O)CN(C)C(=O)CN(C)C(=O)CN(C)C(=O)CN(C)C(=O)CN(C)C(=O)CN(C)C(=O)CN(C)C(=O)CC[C@H](NC(=O)CC[C@H](NC(=O)CC[C@H](NC(=O)CCCCCCCCCCCCCCCCCCC(=O)O)C(=O)O)C(=O)O)C(=O)O)CC1)C(=O)N[C@@H](CCCNC(=N)N)C(=O)N(C)[C@@H](C)C(=O)N[C@@H](CCCNC(=N)N)C(=O)NCC(N)=O` [Compound 62, C20DA-gGlu3-Sar9-AEPipAc-Tyr-Phe-NMeLeu-Nle-Arg-NMeAla-Arg-Gly-NH2] (HELM PEPTIDE1{[O=C(O)CCCCCCCCCCCCCCCCCCC(=O)[*:2]].[gGlu].[gGlu].[gGlu].[Sar].[Sar].[Sar].[Sar].[Sar].[Sar].[Sar].[Sar].[Sar].[O=C(CN1CCN(CCN[*:1])CC1)[*:2]].Y.F.[meL].[Nle].R.[meA].R.G.[am]}$$$$V2.0), the EC50 at human NMUR1 receptor stood at 440 nM; on human NMUR2 receptor [1] it was 3.1 nM; at human NMUR2 receptor [2], 14.2 nM.
For `CCCC[C@H](NC(=O)[C@H](CC(C)C)N(C)C(=O)[C@H](Cc1ccccc1)NC(=O)[C@H](Cc1ccc(O)cc1)NC(=O)CN1CCN(CCNC(=O)CN(C)C(=O)CN(C)C(=O)CN(C)C(=O)CN(C)C(=O)CN(C)C(=O)CN(C)C(=O)CN(C)C(=O)CN(C)C(=O)CN(C)C(=O)CC[C@H](NC(=O)CC[C@H](NC(=O)CCCCCCCCCCCCCCCCC(=O)O)C(=O)O)C(=O)O)CC1)C(=O)N[C@@H](CCCN)C(=O)N(C)[C@@H](C)C(=O)N[C@@H](CCCNC(=N)N)C(=O)NCC(N)=O` [Compound 44, C18DA-gGlu2-Sar9-AEPipAc-Tyr-Phe-NMeLeu-Nle-Orn-NMeAla-Arg-Gly-NH2] (HELM PEPTIDE1{[O=C(O)CCCCCCCCCCCCCCCCC(=O)[*:2]].[gGlu].[gGlu].[Sar].[Sar].[Sar].[Sar].[Sar].[Sar].[Sar].[Sar].[Sar].[O=C(CN1CCN(CCN[*:1])CC1)[*:2]].Y.F.[meL].[Nle].[Orn].[meA].R.G.[am]}$$$$V2.0) the same measures were more than 1000 nM, 2.2 nM and 20.5 nM.
For `CCCC[C@H](NC(=O)[C@H](CC(C)C)N(C)C(=O)[C@H](Cc1ccccc1)NC(=O)[C@H](Cc1ccc(O)cc1)NC(=O)CN1CCN(CCNC(=O)CN(C)C(=O)CN(C)C(=O)CN(C)C(=O)CN(C)C(=O)CN(C)C(=O)CN(C)C(=O)CN(C)C(=O)CN(C)C(=O)CN(C)C(=O)CN(C)C(=O)CN(C)C(=O)CN(C)C(=O)CN(C)C(=O)CN(C)C(=O)CN(C)C(=O)CC[C@H](NC(=O)CC[C@H](NC(=O)CC[C@H](NC(=O)CCCCCCCCCCCCCCCCC(=O)O)C(=O)O)C(=O)O)C(=O)O)CC1)C(=O)N[C@@H](Cc1c[nH]cn1)C(=O)N(C)[C@@H](C)C(=O)N[C@@H](CCCNC(=N)N)C(=O)NCC(N)=O` [Compound 55, C18DA-gGlu3-Sar15-AEPipAc-Tyr-Phe-NMeLeu-Nle-His-NMeAla-Arg-Gly-NH2] (HELM PEPTIDE1{[O=C(O)CCCCCCCCCCCCCCCCC(=O)[*:2]].[gGlu].[gGlu].[gGlu].[Sar].[Sar].[Sar].[Sar].[Sar].[Sar].[Sar].[Sar].[Sar].[Sar].[Sar].[Sar].[Sar].[Sar].[Sar].[O=C(CN1CCN(CCN[*:1])CC1)[*:2]].Y.F.[meL].[Nle].H.[meA].R.G.[am]}$$$$V2.0) the same measures were more than 1000 nM, 29 nM and 294 nM.
